According to US10287301B2 (Achillion Pharmaceuticals, Inc., priority 2015, dated 2019):
Like-named read-outs stand apart in the source and are kept apart here.

Target: Human Factor D (Homo sapiens (Human), UniProt P00746)
Assay: Human Factor D Assay
Format: biochemical
Summary of the method: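 Thioester cleavage assay: human Factor D (serum-derived, 80 nM final), substrate Z-L-Lys-SBzl with DTNB, both 100 μM final, after 5 min compound preincubation at room temperature.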

[1] = Human Factor D 80 nM, substrate Z-L-Lys-SBzl, read-out: IC50
[2] = Human Factor D assay of Example 8, Table 2, read-out: IC50
[3] = Table 3, Human Factor D 80 nM, substrate Z-L-Lys-SBzl, read-out: IC50 (Stars)
[4] = Human Factor D, Table 3, read-out: IC50

Chain of Human Factor D (P00746 26-253): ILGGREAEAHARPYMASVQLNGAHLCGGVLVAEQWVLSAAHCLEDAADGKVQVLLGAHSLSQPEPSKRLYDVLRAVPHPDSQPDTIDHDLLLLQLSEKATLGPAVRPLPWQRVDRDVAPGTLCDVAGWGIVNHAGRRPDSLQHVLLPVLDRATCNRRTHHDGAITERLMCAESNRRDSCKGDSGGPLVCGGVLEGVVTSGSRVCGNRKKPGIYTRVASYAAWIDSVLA

SMILES: CC(=O)c1cn(CC(=O)N2C[C@H](F)C[C@H]2C(=O)Nc2cccc3c2CN(c2ccccn2)C3)c2ccc(-c3ccnnc3)cc12 [Compound 105, (2S,4R)-1-(2-(3-acetyl-5-(pyridazin-4-yl)-1H-indol-1-yl)acetyl)-4-fluoro-N-(2-(pyridin-2-yl)isoindolin-4-yl)pyrrolidine-2-carboxamide]
- IC50 [1]: > 10000 nM

SMILES: NC(=O)c1nn(CC(=O)N2C[C@H](F)C[C@H]2C(=O)Nc2cccnc2O)c2ccc(-c3ccnnc3)cc12 [Compound 196, 1-(2-((2S,4R)-4-fluoro-2-(2-hydroxypyridin-3-ylcarbamoyl)pyrrolidin-1-yl)-2-oxoethyl)-5-(pyridazin-4-yl)-1H-indazole-3-carboxamide]
- IC50 [2]: > 10000 nM

SMILES: CC(=O)c1nn(CC(=O)N2CC=C[C@H]2C(=O)Nc2cccc(Br)n2)c2ccc(-c3cnc(C)nc3)cc12 [Compound 294, (S)-1-(2-(3-acetyl-5-(2-methylpyrimidin-5-yl)-1H-indazol-1-yl)acetyl)-N-(6-bromopyridin-2-yl)-2,5-dihydro-1H-pyrrole-2-carboxamide]
- IC50 [2]: < 1000 nM

SMILES: CC(=O)c1nn(CC(=O)N2C[C@H](F)C[C@H]2C(=O)Nc2cccc(-c3sccc3Cl)c2F)c2ccc(-c3cnc(C)nc3)cc12 [Compound 327, (2S,4R)-1-(2-(3-acetyl-5-(2-methylpyrimidin-5-yl)-1H-indazol-1-yl)acetyl)-N-(3-(3-chlorothiophen-2-yl)-2-fluorophenyl)-4-fluoropyrrolidine-2-carboxamide]
- IC50 [2]: < 1000 nM

SMILES: CC(=O)c1nn(CC(=O)N2C[C@H](F)C[C@H]2C(=O)Nc2ccc(F)cn2)c2ccc(-c3cnc(C)nc3)cc12 [Compound 407, (2S,4R)-1-(2-(3-Acetyl-5-(2-methylpyrimidin-5-yl)-1H-indazol-1-yl)acetyl)-4-fluoro-N-(5-fluoropyridin-2-yl)pyrrolidine-2-carboxamide]
- IC50 [3]: < 1000 nM

SMILES: CC(=O)c1nn(CC(=O)N2C[C@H](F)C[C@H]2C(=O)Nc2nc(Br)ccc2C)c2ccc(-c3cnc(C)nc3)cc12 [Compound 405, (2S,4R)-1-(2-(3-Acetyl-5-(2-methylpyrimidin-5-yl)-1H-indazol-1-yl)acetyl)-N-(6-bromo-3-methylpyridin-2-yl)-4-fluoropyrrolidine-2-carboxamide]
- IC50 [3]: < 1000 nM

SMILES: CC(=O)c1cn(CC(=O)N2C[C@H](F)C[C@H]2C(=O)Nc2cc(C)cc(Br)n2)c2ccc(-c3cnc4cc(C)nn4c3)cc12 [Compound 657, (2S,4R)-1-(2-(3-Acetyl-5-(2-methylpyrazolo[1,5-a]pyrimidin-6-yl)-1H-indol-1-yl)acetyl)-N-(6-bromo-4-methylpyridin-2-yl)-4-fluoropyrrolidine-2-carboxamide]
- IC50 [4]: < 1000 nM

SMILES: CC(=O)c1nn(CC(=O)N2[C@H](C(=O)N[C@@H](C)C(F)=C(C)C)C[C@@]3(C)C[C@@H]23)c2ccc(-c3cnc(C)nc3)cc12 [Compound 622, (1R,3S,5R)-2-(2-(3-acetyl-5-(2-methylpyrimidin-5-yl)-1H-indazol-1-yl)acetyl)-N-((S)-3-fluoro-4-methylpent-3-en-2-yl)-5-methyl-2-azabicyclo[3.1.0] hexane-3-carboxamide]
- IC50 [4]: < 1000 nM

SMILES: Cc1cccc(NC(=O)[C@@H]2[C@H]3CC[C@H](C3)N2C(=O)Cn2cc(C(N)=O)c3cc(-c4cnc5c(c4)CCC5)ccc32)n1 [Compound 535, 5-(6,7-Dihydro-5H-cyclopenta[b]pyridin-3-yl)-1-(2-((1R,3S,4S)-3-(6-methylpyridin-2-ylcarbamoyl)-2-azabicyclo[2.2.1]heptan-2-yl)-2-oxoethyl)-1H-indole-3-carboxamide]
- IC50 [3]: > 10000 nM

SMILES: CC(=O)c1nn(CC(=O)N2[C@@H]3C[C@@H]3C[C@H]2C(=O)Nc2cnc(C)c(Br)n2)c2ccc(-c3cnc4cc(C)nn4c3)cc12 [Compound 666, (1R,3S,5R)-2-(2-(3-Acetyl-5-(2-methylpyrazolo[1,5-a]pyrimidin-6-yl)-1H-indazol-1-yl)acetyl)-N-(6-bromo-5-methylpyrazin-2-yl)-2-azabicyclo[3.1.0]hexane-3-carboxamide]
- IC50 [4]: < 1000 nM

SMILES: CC(=O)c1nn(CC(=O)N2[C@@H]3C[C@@H]3C[C@H]2C(=O)Nc2cncc(Br)n2)c2ccc(-c3cnc(NC4CC4)nc3)cc12 [Compound 380, (1R,3S,5R)-2-(2-(3-Acetyl-5-(2-(cyclopropylamino)pyrimidin-5-yl)-1H-indazol-1-yl)acetyl)-N-(6-bromopyrazin-2-yl)-2-azabicyclo[3.1.0]hexane-3-carboxamide]
- IC50 [3]: < 1000 nM

SMILES: CC(=O)c1nn(CC(=O)N2C[C@H](F)C[C@H]2C(=O)Nc2cc(F)ncc2Br)c2ccc(-c3cnc(C)nc3)cc12 [Compound 438, (2S,4R)-1-(2-(3-Acetyl-5-(2-methylpyrimidin-5-yl)-1H-indazol-1-yl)acetyl)-N-(5-bromo-2-fluoropyridin-4-yl)-4-fluoropyrrolidine-2-carboxamide]
- IC50 [3]: < 1000 nM

SMILES: CC(=O)c1nn(CC(=O)N2C[C@H](F)C[C@H]2C(=O)Nc2cncc(Br)n2)c2ccc(-c3cnc(C4CC4)nc3)cc12 [Compound 354, (2S,4R)-1-(2-(3-Acetyl-5-(2-cyclopropylpyrimidin-5-yl)-1H-indazol-1-yl)acetyl)-N-(6-bromopyrazin-2-yl)-4-fluoropyrrolidine-2-carboxamide]
- IC50 [3]: < 1000 nM

SMILES: NC(=O)c1nn(CC(=O)N2C[C@H](F)C[C@H]2C(=O)Nc2nccc(Cl)n2)c2ccc(-c3ccnnc3)cc12 [Compound 178, 1-(2-((2S,4R)-2-(4-chloropyrimidin-2-ylcarbamoyl)-4-fluoropyrrolidin-1-yl)-2-oxoethyl)-5-(pyridazin-4-yl)-1H-indazole-3-carboxamide]
- IC50 [1]: > 10000 nM

SMILES: CC(=O)c1cn(CC(=O)N2[C@@H]3C[C@@H]3C[C@H]2C(=O)Nc2cccc(Br)n2)c2ccc(-c3cnc4cc(C)nn4c3)cc12 [Compound 298, (1R,3S,5R)-2-(2-(3-acetyl-5-(2-methylpyrazolo[1,5-a]pyrimidin-6-yl)-1H-indol-1-yl)acetyl)-N-(6-bromopyridin-2-yl)-2-azabicyclo[3.1.0] hexane-3-carboxamide]
- IC50 [2]: < 1000 nM

SMILES: NC(=O)c1nn(CC(=O)N2C[C@H](F)C[C@H]2C(=O)NCc2ccccn2)c2ccc(-c3ccnnc3)cc12 [Compound 139, 1-(2-((2S,4R)-4-fluoro-2-(pyridin-2-ylmethylcarbamoyl)pyrrolidin-1-yl)-2-oxoethyl)-5-(pyridazin-4-yl)-1H-indazole-3-carboxamide]
- IC50: 1000 to 10000 nM

SMILES: CC(=O)c1ncc(-c2ccc3c(c2)c(C(C)=O)cn3CC(=O)N2C[C@H](F)C[C@H]2C(=O)Nc2cccc(Br)n2)cn1 [Compound 218, (2S,4R)-1-(2-(3-acetyl-5-(2-acetylpyrimidin-5-yl)-1H-indol-1-yl)acetyl)-N-(6-bromopyridin-2-yl)-4-fluoropyrrolidine-2-carboxamide]
- IC50 [2]: < 1000 nM

SMILES: CC(=O)c1nn(CC(=O)N2C[C@H](F)C[C@H]2C(=O)Nc2cccc(Br)n2)c2ccc(-c3cnc(OCC(F)(F)F)nc3)cc12 [Compound 505, (2S,4R)-1-(2-(3-Acetyl-5-(2-(S2,2,2-trifluoroethoxy)pyrimidin-5-yl)-1H-indazol-1-yl)acetyl)-N-(6-bromopyridin-2-yl)-4-fluoropyrrolidine-2-carboxamide]
- IC50 [3]: < 1000 nM

SMILES: CC(=O)c1nn(CC(=O)N2C[C@@](F)(CF)C[C@H]2C(=O)Nc2nc(Br)ccc2C)c2ccc(-c3cnc(C)nc3)cc12 [Compound 511, (2S,4R)-1-(2-(3-Acetyl-5-(2-methylpyrimidin-5-yl)-1H-indazol-1-yl)acetyl)-N-(6-bromo-3-methylpyridin-2-yl)-4-fluoro-4-(fluoromethyl)pyrrolidine-2-carboxamide]
- IC50 [3]: < 1000 nM

SMILES: COc1ncc(-c2ccc3c(c2)c(C(C)=O)nn3CC(=O)N2[C@@H]3C[C@@H]3C[C@H]2C(=O)Nc2ccc(F)c(Br)n2)cn1 [Compound 457, (1R,3S,5R)-2-(2-(3-Acetyl-5-(2-methoxypyrimidin-5-yl)-1H-indazol-1-yl)acetyl)-N-(6-bromo-5-fluoropyridin-2-yl)-2-azabicyclo[3.1.0]hexane-3-carboxamide]
- IC50 [3]: < 1000 nM

SMILES: CC(=O)c1cn(CC(=O)N2C[C@H](F)C[C@H]2C(=O)Nc2cccc(-c3ccccc3Cl)c2F)c2ccc(-c3cnc(O)nc3)cc12 [Compound 186, (2S,4R)-1-(2-(3-acetyl-5-(2-hydroxypyrimidin-5-yl)-1H-indol-1-yl)acetyl)-N-(2′-chloro-2-fluorobiphenyl-3-yl)-4-fluoropyrrolidine-2-carboxamide]
- IC50 [1]: < 1000 nM

SMILES: CC(=O)c1nn(CC(=O)N2[C@@H]3C[C@@H]3C[C@H]2C(=O)Nc2cncc(Br)n2)c2ccc(-c3cnc4cc(C)nn4c3)cc12 [Compound 324, (1R,3S,5R)-2-(2-(3-acetyl-5-(2-methylpyrazolo[1,5-a]pyrimidin-6-yl)-1H-indazol-1-yl)acetyl)-N-(6-bromopyrazin-2-yl)-2-azabicyclo[3.1.0] hexane-3-carboxamide]
- IC50 [2]: < 1000 nM

SMILES: CC(=O)c1cn(CC(=O)N2C[C@H](F)C[C@H]2C(=O)Nc2cccc(-c3ccccc3Cl)c2F)c2ccc(-c3cnc(C)nc3)cc12 [Compound 102, (2S,4R)-1-(2-(3-acetyl-5-(2-methylpyrimidin-5-yl)-1H-indol-1-yl)acetyl)-N-(2′-chloro-2-fluorobiphenyl-3-yl)-4-fluoropyrrolidine-2-carboxamide]
- IC50 [1]: < 1000 nM

SMILES: CC(=O)c1nn(CC(=O)N2[C@@H]3C[C@@H]3C[C@H]2C(=O)NCC(F)=C(C)C2CC2)c2ccc(-c3cnc(C)nc3)cc12 [Compound 551, (1R,3S,5R)-2-(2-(3-Acetyl-5-(2-methylpyrimidin-5-yl)-1H-indazol-1-yl)acetyl)-N-(3-cyclopropyl-2-fluorobut-2-en-1-yl)-2-azabicyclo[3.1.0]hexane-3-carboxamide]
- IC50 [4]: < 1000 nM

SMILES: CC(=O)c1nn(CC(=O)N2C[C@H](F)C[C@H]2C(=O)Nc2cc(C(F)(F)F)cc(Br)n2)c2ccc(-c3cnc(C)nc3)cc12 [Compound 370, (2S,4R)-1-(2-(3-Acetyl-5-(2-methylpyrimidin-5-yl)-1H-indazol-1-yl)acetyl)-N-(6-bromo-4-(trifluoromethyl)pyridin-2-yl)-4-fluoropyrrolidine-2-carboxamide]
- IC50 [3]: < 1000 nM
